Measurements reported in US20120309683A1, “USE OF […] ADENYLATE CYCLASE-ACTIVATING POLYPEPTIDE (PACAP) AND PACAP ANALOGS AS ADJUNCTIVE TREATMENTS WITH INHIBITORS OF CALCINEURIN OR INHIBITORS OF THE […] TARGET OF RAPAMYCIN (mTOR) COMPLEXES” (The Administrators of the Tulane Educational Fund, priority 2010, published 2012).
Where no end group is shown, it is not given here. [ ]: non-standard residue; d: D form. The star is where a group is joined. Palmitoyl = CCCCCCCCCCCCCCCC(=O)*; Aib = CC(C)(N)C(=O)O

Tests used:
[1] = system: HK-2 human kidney cells (human renal proximal tubule epithelial cells); test: Sirolimus-induced apoptotic cell death of HK-2 cells, histone-associated DNA fragmentation; format: cell-based; conditions: 100 ng/ml sirolimus for 24 hours, HK-2 cells
Procedure: The HK-2 human kidney cells were cultured in Keratinocyte-Serum Free Medium supplemented with recombinant epidermal growth factor and bovine pituitary extract. The dose-dependent inhibitory effect of PACAP38 on apoptotic cell death was assessed by the quantitative determination of cytoplasmic histone-associated DNA-fragmentation (mono- and oligonucleosomes) after exposure to 100 ng/ml of sirolimus for 24 hours. Each value represents the mean plus/minus the standard error of eight determinations. **p<0.01 and *p<0.05 compared to the cells treated only with sirolimus.

[2] = system: light-chain immunoglobulin-secreting human multiple myeloma cells; test: Proliferation of multiple myeloma cells with sirolimus, bromodeoxyuridine incorporation; format: cell-based; conditions: multiple myeloma cells with sirolimus, 10^−9 M to 10^−6 M peptide, 24-hour incubation
Procedure: The light-chain immunoglobulin-secreting human multiple myeloma cells were cultured in RPMI 1640 medium supplemented with 10% non-inactivated fetal bovine serum and 0.05 mM 2-mercaptoethanol. The effects of PACAP38, PACAP27 and PACAP analogs on myeloma cell proliferation were assessed by determining incorporation of bromodeoxyuridine into DNA during cell division. The number of myeloma cells approximately doubled during the 24-hour incubation period in the absence of treatment with PACAP-like peptides. Four different concentrations, ranging from 10^−9 M to 10^−6 M, were tested for PACAP38, PACAP27 and each of the PACAP analogs. Each value represents the mean plus/minus the standard error of four determinations. **p<0.01 and *p<0.05 compared to the cells treated only with sirolimus.
The effects of PACAP38, PACAP27 and PACAP analogs on human cell proliferation were assessed by determining incorporation of bromodeoxyuridine into DNA during cell division. […] At the highest dose (10^−6 M), PACAP38 inhibited the proliferation by more than 50%.

[3] = system: NCI-H838 human non-small cell lung cancer cells; conditions: nude mice; cited from earlier work
[4] = system: PC-3 human prostate cancer cells; conditions: nude mice; cited from earlier work
[5] = system: MCF-7 human breast cancer cells; conditions: nude mice; cited from earlier work
[6] = system: Jurkat human T-lymphocyte cells; test: Mitogen-stimulated secretion of interleukin-2 from Jurkat cells; format: cell-based; conditions: PHA and PMA stimulated Jurkat cells, 24 hours
Procedure: The Jurkat human T-lymphocyte cells were cultured in RPMI 1640 medium supplemented with 10% heat-inactivated fetal calf serum. The Jurkat cells were stimulated with the mitogens phytohemagglutinin (PHA, 1 mg/ml) and phorbol 12-myristate 13-acetate (PMA, 50 ng/ml). […] Each value represents the mean plus/minus the standard error of eight determinations. **p<0.01 and *p<0.05 compared to the cells treated only with the mitogens.
(§1) However, when Jurkat cells were stimulated with PHA and PMA, large quantities of interleukin-2 could be detected in the medium (FIG. 9). […] At the highest dose (10^−5 M), PACAP38 inhibited the proliferation of the Jurkat cells by more than 50%.

[7] = system: Jurkat human T-lymphocyte cells; test: Inhibition by cyclosporine A of IL-2 secretion from Jurkat cells, enhancement by peptides; format: cell-based; conditions: peptide added on top of cyclosporine, 24 hours
Procedure: The Jurkat human T-lymphocyte cells were cultured in RPMI 1640 medium supplemented with 10% heat-inactivated fetal calf serum. The Jurkat cells were stimulated with mitogens (1 mg/ml of PHA and 50 ng/ml of PMA). […] Each value represents the mean plus/minus the standard error of eight determinations. **p<0.01 and *p<0.05 compared to the cells treated only with the mitogens.
However, when Jurkat cells were stimulated with PHA and PMA, large quantities of interleukin-2 could be detected in the medium (FIG. 11).

[8] = system: Jurkat human T-lymphocyte cells; test: Proliferation of Jurkat cells, bromodeoxyuridine incorporation; format: cell-based; conditions: mitogen-stimulated Jurkat cells, 24 hours
Procedure: The Jurkat human T-lymphocyte cells were cultured in RPMI 1640 medium supplemented with 10% heat-inactivated fetal calf serum. The Jurkat cells were stimulated with mitogens (1 mg/ml of PHA and 50 ng/ml of PMA).
as §1

[9] = system: HK-2 human kidney cells (human renal proximal tubule epithelial cells); test: Tacrolimus-induced loss of viability of HK-2 cells, lactate dehydrogenase in intact cells; format: cell-based; conditions: various concentrations of peptide added to medium
Procedure: The HK-2 human kidney cells were cultured in Keratinocyte-Serum Free Medium supplemented with recombinant epidermal growth factor and bovine pituitary extract. […] Each value represents the mean plus/minus the standard error of five determinations. **p<0.01 and *p<0.05 compared to the cells treated only with tacrolimus.

[10] = rat, in vivo, iv; cited from earlier work

Molecule: CO[C@H]1C[C@@H]2CC[C@@H](C)[C@@](O)(O2)C(=O)C(=O)N2CCCC[C@H]2C(=O)O[C@H]([C@H](C)C[C@@H]2CC[C@@H](O)[C@H](OC)C2)CC(=O)[C@H](C)/C=C(\C)[C@@H](O)[C@@H](OC)C(=O)[C@H](C)C[C@H](C)/C=C/C=C/C=C/1C [sirolimus, reference compound]
- apoptotic cell death [1]: large significant increase in apoptotic cell death

Molecule: PACAP27 (HSDGIFTDSYSRYRKQMAVKKYLAAVL-NH2; listed as Homo sapiens)
- rate of proliferation of the human B-lymphocyte cell line [2]: significant dose-dependent inhibition

Molecule: PACAP(6-38) (FTDSYSRYRKQMAVKKYLAAVLGKRYKQRVKNK; ends and bridges not checked; UniProt P18509 137-169, looked up, fragment) [a PACAP/VIP receptor antagonist]
- growth of xenografts [3]: inhibited the growth
- growth of xenografts [4]: inhibited the growth
- growth of xenografts [5]: inhibited the growth

Molecule: VIP (HSDAVFTDNYTRLRKQMAVKKYLNSILN-NH2; listed as Homo sapiens)
- mitogen-induced secretion of interleukin-2 into the medium [6]: large significant inhibition
- cyclosporine-induced inhibition of interleukin-2 secretion [7]: small dose-dependent enhancement
- rate of proliferation of the human T-lymphocyte cell line [8]: significant dose-dependent inhibition
- loss of viable human renal proximal tubule epithelial cells caused by tacrolimus [9]: significant dose-dependent reduction

Molecule: [Aib^2]PACAP38 (H[Aib]DGIFTDSYSRYRKQMAVKKYLAAVLGKRYKQRVKNK; ends and bridges not checked)
- rate of proliferation of the human B-lymphocyte cell line [2]: significant dose-dependent inhibition
- rate of proliferation of the human T-lymphocyte cell line [8]: significant dose-dependent inhibition

Molecule: [Ala^16,Ala^17,D-Lys^38]PACAP38 (HSDGIFTDSYSRYRKAAAVKKYLAAVLGKRYKQRVKN[dK]; ends and bridges not checked)
- loss of viable human renal proximal tubule epithelial cells caused by tacrolimus [9]: significant dose-dependent reduction

Molecule: [Ala^22]PACAP38 (HSDGIFTDSYSRYRKQMAVKKALAAVLGKRYKQRVKNK; ends and bridges not checked)
- rate of proliferation of the human B-lymphocyte cell line [2]: significant dose-dependent inhibition

Molecule: [D-Ser^2,Lys^38-palmitoyl]PACAP38 (H[dS]DGIFTDSYSRYRKQMAVKKYLAAVLGKRYKQRVKNK(Palmitoyl); not fully specified (C-terminus))
- loss of viable human renal proximal tubule epithelial cells caused by tacrolimus [9]: significant dose-dependent reduction

Molecule: [D-Ser^2]PACAP38 (H[dS]DGIFTDSYSRYRKQMAVKKYLAAVLGKRYKQRVKNK; not fully specified (C-terminus))
- mitogen-induced secretion of interleukin-2 into the medium [6]: large significant inhibition
- cyclosporine-induced inhibition of interleukin-2 secretion [7]: small dose-dependent enhancement
- rate of proliferation of the human T-lymphocyte cell line [8]: significant dose-dependent inhibition
- loss of viable human renal proximal tubule epithelial cells caused by tacrolimus [9]: significant dose-dependent reduction

Molecule: [Lys^34]PACAP38 (HSDGIFTDSYSRYRKQMAVKKYLAAVLGKRYKQKVKNK; ends and bridges not checked)
- rate of proliferation of the human B-lymphocyte cell line [2]: significant dose-dependent inhibition

Molecule: [^125I]-PACAP38
- half-life in the bloodstream [10]: 5 to 6 min
